Data reported in article PMC6001238, “Iterative Chemical Engineering of Vancomycin Leads to Novel Vancomycin Analogs With a High in Vitro Therapeutic Index” (Frontiers in Microbiology, 2018).
Values after ≈ are worked out from the molar mass of the structure shown.

Tests used:
S. aureus VRSA = experiment: MIC, broth microdilution, vancomycin-resistant S. aureus (VRSA); assay type: cell-based, Staphylococcus aureus; settings: for MIC: Staphylococcus aureus VRSA, read-out: MIC; for MIC-fold improvement vs. vancomycin: VRSA, ratio of MIC of vancomycin and MIC of analogue
Method in brief: (§1)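 MIC values come from broth microdilution run to CLSI susceptibility-testing standards. Ultrapure water and uninoculated broth served as controls. In one series, vancomycin at a final 10 μM was co-dosed with the analogue or comparator antibiotic.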

[1] = system: L1210, CEM and HeLa cell lines; experiment: Cytostatic activity, average or summary over L1210, CEM and HeLa; assay type: cell-based; settings: average of L1210, CEM and HeLa; read-out: Toxicity (IC50) Average
Method in brief: (§2)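 Coulter counter cell counts after 37°C culture with compound; IC50 = concentration giving 50% growth inhibition vs negative control. Incubation: L1210 2 d, CEM 3 d, HeLa 4 d. Suspension density before mixing with an equal volume of dilution: 300,000–500,000 cells/mL.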

[2] = system: S. aureus VSSA (ATCC 6538); experiment: MIC, broth microdilution, vancomycin-sensitive S. aureus (VSSA/MSSA, ATCC 6538); assay type: cell-based, Staphylococcus aureus; settings: for MIC: Staphylococcus aureus VSSA, read-out: MIC; for MIC-fold improvement vs. vancomycin: VSSA, ratio of MIC of vancomycin and MIC of analogue
Method in brief: as §1

S. aureus VISA/HIP5827 = experiment: MIC, broth microdilution, vancomycin-intermediate S. aureus VISA HIP5827; assay type: cell-based, Staphylococcus aureus; settings: for MIC: Staphylococcus aureus VISA/HIP5827, read-out: MIC; for MIC-fold improvement vs. vancomycin: VISA/HIP5827, ratio of MIC of vancomycin and MIC of analogue
Method in brief: as §1

E. faecalis VRE 29 = experiment: MIC, broth microdilution, vancomycin-resistant E. faecalis VRE 29 (VanA); assay type: cell-based, Enterococcus faecalis; settings: for MIC: Enterococcus faecalis VRE 29 (vancomycin-resistant), read-out: MIC; for MIC-fold improvement vs. vancomycin: VRE 29, ratio of MIC of vancomycin and MIC of analogue
Method in brief: as §1

E. faecalis VRE 37 = experiment: MIC, broth microdilution, vancomycin-resistant E. faecalis VRE 37 (VanA); assay type: cell-based, Enterococcus faecalis; settings: for MIC: Enterococcus faecalis VRE 37 (vancomycin-resistant), read-out: MIC
Method in brief: as §1

MRSA KS2 = experiment: MIC, broth microdilution, MRSA KS2; assay type: cell-based, Staphylococcus aureus; settings: for MIC-fold improvement vs. vancomycin: MRSA KS2, ratio of MIC of vancomycin and MIC of analogue; for MIC: Staphylococcus aureus MRSA KS2, read-out: MIC
Method in brief: as §1

E. faecalis VRE 53 = experiment: MIC, broth microdilution, vancomycin-resistant E. faecalis VRE 53 (VanA); assay type: cell-based, Enterococcus faecalis; settings: for MIC: Enterococcus faecalis VRE 53 (vancomycin-resistant), read-out: MIC; for MIC-fold improvement vs. vancomycin: VRE 53, ratio of MIC of vancomycin and MIC of analogue
Method in brief: as §1

[3] = system: human T-lymphocyte (CEM) cells; experiment: Cytostatic activity, CEM cell proliferation; assay type: cell-based; settings: mean ± SD of three experiments; highest concentration tested 250 µM; 3 days; read-out: Toxicity (IC50) CEM
Method in brief: as §2

[4] = system: Murine leukemia (L1210) cells; experiment: Cytostatic activity, L1210 cell proliferation; assay type: cell-based; settings: mean ± SD of three experiments; highest concentration tested 250 µM; 2 days; read-out: Toxicity (IC50) L1210
Method in brief: as §2

[5] = system: human cervix carcinoma (HeLa) cells; experiment: Cytostatic activity, HeLa cell proliferation; assay type: cell-based; settings: mean ± SD of three experiments; highest concentration tested 250 µM; 4 days; read-out: Toxicity (IC50) HeLa
Method in brief: as §2

MRSA KS1 = experiment: MIC, broth microdilution, MRSA KS1; assay type: cell-based, Staphylococcus aureus; settings: for MIC-fold improvement vs. vancomycin: MRSA KS1, ratio of MIC of vancomycin and MIC of analogue; for MIC: Staphylococcus aureus MRSA KS1, read-out: MIC
Method in brief: as §1

MRSA KS6 = experiment: MIC, broth microdilution, MRSA KS6; assay type: cell-based, Staphylococcus aureus; settings: for MIC-fold improvement vs. vancomycin: MRSA KS6, ratio of MIC of vancomycin and MIC of analogue; for MIC: Staphylococcus aureus MRSA KS6, read-out: MIC
Method in brief: as §1

E. faecalis VSE 1 = experiment: MIC, broth microdilution, vancomycin-sensitive E. faecalis (VSE 1); assay type: cell-based, Enterococcus faecalis; settings: for MIC: Enterococcus faecalis VSE 1 (vancomycin-sensitive), read-out: MIC; for MIC-fold improvement vs. vancomycin: VSE 1, ratio of MIC of vancomycin and MIC of analogue
Method in brief: as §1

E. faecalis VRE 6 = experiment: MIC, broth microdilution, vancomycin-resistant E. faecalis VRE 6 (VanA); assay type: cell-based, Enterococcus faecalis; settings: for MIC: Enterococcus faecalis VRE 6 (vancomycin-resistant), read-out: MIC; for MIC-fold improvement vs. vancomycin: VRE 6, ratio of MIC of vancomycin and MIC of analogue
Method in brief: as §1

MRSA KS89 = experiment: MIC, broth microdilution, MRSA KS89; assay type: cell-based, Staphylococcus aureus; settings: for MIC-fold improvement vs. vancomycin: MRSA KS8, ratio of MIC of vancomycin and MIC of analogue; for MIC: Staphylococcus aureus MRSA KS8, read-out: MIC
Method in brief: as §1

| Structure (SMILES) | MIC (S. aureus VRSA) [µM] | MIC-fold improvement vs. vancomycin (S. aureus VRSA) | IC50 [1] [µM] | MIC [2] [µM] | MIC-fold improvement vs. vancomycin [2] | MIC (S. aureus VISA/HIP5827) [µM] | MIC-fold improvement vs. vancomycin (S. aureus VISA/HIP5827) | MIC (E. faecalis VRE 29) [µM] | MIC-fold improvement vs. vancomycin (E. faecalis VRE 29) | MIC (E. faecalis VRE 37) [µM] | MIC-fold improvement vs. vancomycin (MRSA KS2) | MIC (MRSA KS2) [µM] | MIC (E. faecalis VRE 53) [µM] | MIC-fold improvement vs. vancomycin (E. faecalis VRE 53) | IC50 [3] [µM] | IC50 [4] [µM] | IC50 [5] [µM] | MIC-fold improvement vs. vancomycin (MRSA KS1) | MIC (MRSA KS1) [µM] | MIC-fold improvement vs. vancomycin (MRSA KS6) | other results |
| --- | --- | --- | --- | --- | --- | --- | --- | --- | --- | --- | --- | --- | --- | --- | --- | --- | --- | --- | --- | --- | --- |
| CN[C@H](CC(C)C)C(=O)N[C@H]1C(=O)N[C@@H](CC(N)=O)C(=O)N[C@H]2C(=O)N[C@H]3C(=O)N[C@H](C(=O)N[C@H](C(=O)NCCNC(=O)/C=C/c4ccc(Cl)cc4)c4cc(O)cc(O)c4-c4cc3ccc4O)[C@H](O)c3ccc(c(Cl)c3)Oc3cc2cc(c3O[C@@H]2O[C@H](CO)[C@@H](O)[C@H](O)[C@H]2O[C@H]2C[C@](C)(N)[C@H](O)[C@H](C)O2)Oc2ccc(cc2Cl)[C@H]1O [Vanc-20] | 3.13 (≈ 5.18 µg/mL) | 32 | 121 | 0.39 (≈ 0.646 µg/mL) | 2 | 0.39 (≈ 0.646 µg/mL) | 16 | 6.25 (≈ 10.3 µg/mL) | 64 | 12.5 (≈ 20.7 µg/mL) | 4 | 0.20 (≈ 0.331 µg/mL) | 12.5 (≈ 20.7 µg/mL) | 32 | 146 ± 24 | 138 ± 5 | 80 ± 3 | 2 | 0.39 (≈ 0.646 µg/mL) | 2 | MIC (MRSA KS6): 0.39 µM (≈ 0.646 µg/mL); MIC (E. faecalis VSE 1): 0.39 µM (≈ 0.646 µg/mL); MIC-fold improvement vs. vancomycin (E. faecalis VSE 1): 4; MIC (E. faecalis VRE 6): 1.56 µM (≈ 2.58 µg/mL); MIC-fold improvement vs. vancomycin (E. faecalis VRE 6): 128; MIC-fold improvement vs. vancomycin (MRSA KS89): 2; MIC (MRSA KS89): 0.39 µM (≈ 0.646 µg/mL) |
| CN[C@H](CC(C)C)C(=O)N[C@H]1C(=O)N[C@@H](CC(N)=O)C(=O)N[C@H]2C(=O)N[C@H]3C(=O)N[C@H](C(=O)N[C@H](C(=O)NCCNC(=O)/C=C/c4cccc(OC)c4)c4cc(O)cc(O)c4-c4cc3ccc4O)[C@H](O)c3ccc(c(Cl)c3)Oc3cc2cc(c3O[C@@H]2O[C@H](CO)[C@@H](O)[C@H](O)[C@H]2O[C@H]2C[C@](C)(N)[C@H](O)[C@H](C)O2)Oc2ccc(cc2Cl)[C@H]1O [Vanc-23] | 6.25 (≈ 10.3 µg/mL) | 16 | > 250 | 0.39 (≈ 0.644 µg/mL) | 2 | 0.78 (≈ 1.29 µg/mL) | 8 | 12.5 (≈ 20.6 µg/mL) | 32 | 25 (≈ 41.3 µg/mL) | 2 | 0.39 (≈ 0.644 µg/mL) | 25 (≈ 41.3 µg/mL) | 16 | > 250 | > 250 | > 250 | 1 | 0.78 (≈ 1.29 µg/mL) | 1 | MIC-fold improvement vs. vancomycin (E. faecalis VRE 37; VRE 37, ratio of MIC of vancomycin and MIC of analogue): 16; MIC (MRSA KS6): 0.78 µM (≈ 1.29 µg/mL); MIC (E. faecalis VSE 1): 0.39 µM (≈ 0.644 µg/mL); MIC-fold improvement vs. vancomycin (E. faecalis VSE 1): 4; MIC (E. faecalis VRE 6): 3.13 µM (≈ 5.17 µg/mL); MIC-fold improvement vs. vancomycin (E. faecalis VRE 6): 64; MIC-fold improvement vs. vancomycin (MRSA KS89): 1; MIC (MRSA KS89): 0.78 µM (≈ 1.29 µg/mL) |
